This passage reports GI50 and TGI results from PubChem BioAssay (NCI).

Some test systems named below: DU-145 prostate; CCRF-CEM leukemia; HT29 colon; HOP-62 NSCLC; OVCAR-5 ovarian; IGROV1 ovarian; UACC-257 melanoma; U251 CNS; MALME-3M melanoma; UACC-62 melanoma.
Common to all, as to test: growth of human tumour cells (NCI), 48 h

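Test compounds were applied to cells in 96-well plates for 48 hours at 5 doses. At the GI50, growth is halved. At the TGI there is no net growth.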

In the case of `Cn1cc(C2=C(c3cn(CCCCC(=N)N)c4ccccc34)C(=O)NC2=O)c2ccccc21`, the GI50 in the experiment with DU-145 prostate is greater than 25000 nM; in the experiment with CCRF-CEM leukemia it was 11500 nM; with HT29 colon, greater than 22900 nM; with HOP-62 NSCLC, greater than 25000 nM; in the experiment on OVCAR-5 ovarian, greater than 25000 nM; with IGROV1 ovarian it was greater than 21.9 µM. The GI50 in the experiment with UACC-257 melanoma was greater than 25000 nM; with U251 CNS it was 17200 nM; with MALME-3M melanoma it was greater than 25000 nM; in the experiment on UACC-62 melanoma, greater than 25000 nM. The TGI with DU-145 prostate, in the experiment on CCRF-CEM leukemia, with HT29 colon, with HOP-62 NSCLC, in the experiment on OVCAR-5 ovarian and in the experiment with IGROV1 ovarian was greater than 25 µM in each case. Also, the TGI with UACC-257 melanoma, in the experiment with U251 CNS, with MALME-3M melanoma and with UACC-62 melanoma was greater than 25 µM in each case.
As for `O=C(C=C=Nc1ccccc1)C(=O)N=C=Cc1ccccc1`, the GI50 is 2240 nM in the experiment on DU-145 prostate; 724 nM in the experiment with CCRF-CEM leukemia; 1890 nM in the experiment on HT29 colon; 21400 nM in the experiment on HOP-62 NSCLC; 2880 nM in the experiment with OVCAR-5 ovarian; 2.96 µM with IGROV1 ovarian. Moreover, the GI50 in the experiment on UACC-257 melanoma is 2380 nM; in the experiment on U251 CNS it was 5270 nM; in the experiment on MALME-3M melanoma it was 1540 nM; in the experiment on UACC-62 melanoma it was 4260 nM. The TGI in the experiment with DU-145 prostate was 6.82 µM; in the experiment with CCRF-CEM leukemia, greater than 100 µM; in the experiment on HT29 colon it was 4.74 µM; in the experiment on HOP-62 NSCLC it was 52.6 µM; in the experiment on OVCAR-5 ovarian, 11.8 µM; in the experiment with IGROV1 ovarian it was 12.3 µM. Further, the TGI worked out at 5.56 µM with UACC-257 melanoma, 17.3 µM in the experiment on U251 CNS, 5.33 µM with MALME-3M melanoma and 12.6 µM in the experiment with UACC-62 melanoma.
With `COc1cc(-c2cc(=O)c3c(O)c(OC)c(OC)c(OC)c3o2)cc(OC)c1OC`, the TGI in the experiment on DU-145 prostate was greater than 100 µM; in the experiment on CCRF-CEM leukemia it was greater than 100 µM; with HT29 colon, greater than 100 µM; in the experiment on HOP-62 NSCLC, 16.9 µM; in the experiment with OVCAR-5 ovarian, greater than 100 µM; in the experiment on IGROV1 ovarian it was greater than 100 µM. Also, the TGI in the experiment with UACC-257 melanoma is greater than 100 µM; in the experiment on U251 CNS it was greater than 22.2 µM; in the experiment on MALME-3M melanoma, greater than 100 µM; with UACC-62 melanoma, greater than 100 µM.
For the compound `O=C(/C=C/c1cccc2ccccc12)Nc1ncc(Cc2ccccc2)s1`, the GI50 is 1610 nM with DU-145 prostate; 852 nM with CCRF-CEM leukemia; 1000 nM in the experiment with HT29 colon; 885 nM in the experiment with HOP-62 NSCLC; 1980 nM with OVCAR-5 ovarian; 1.27 µM with IGROV1 ovarian. The GI50 in the experiment with UACC-257 melanoma is 4970 nM; in the experiment on U251 CNS, 818 nM; in the experiment on MALME-3M melanoma, 627 nM; with UACC-62 melanoma it was 437 nM. Moreover, the TGI is greater than 100 µM in the experiment with DU-145 prostate; greater than 100 µM in the experiment with CCRF-CEM leukemia; greater than 47 µM in the experiment on HT29 colon; 4.56 µM in the experiment on HOP-62 NSCLC; greater than 100 µM in the experiment with OVCAR-5 ovarian; greater than 87.3 µM in the experiment with IGROV1 ovarian. For the same compound, the TGI with UACC-257 melanoma is greater than 100 µM; in the experiment with U251 CNS it was 4.67 µM; in the experiment with MALME-3M melanoma, greater than 100 µM; with UACC-62 melanoma, greater than 100 µM.
For `O=C(c1ccc2ccccc2c1)c1c(C(F)(F)F)n([O-])c2ccc(F)cc2[n+]1=O`, the GI50 with DU-145 prostate was 1680 nM; in the experiment with CCRF-CEM leukemia, 1600 nM; in the experiment on HT29 colon it was 1360 nM; in the experiment with HOP-62 NSCLC it was 1910 nM; with OVCAR-5 ovarian it was 1780 nM; with UACC-257 melanoma it was 1740 nM. Also, the values for the GI50 in the experiment on U251 CNS, in the experiment on MALME-3M melanoma and in the experiment with UACC-62 melanoma were 1470 nM, 397 nM and 1600 nM, respectively. The TGI is 3.12 µM in the experiment with DU-145 prostate; 5.26 µM in the experiment on CCRF-CEM leukemia; 3.02 µM in the experiment on HT29 colon; 3.39 µM in the experiment on HOP-62 NSCLC; 3.18 µM in the experiment with OVCAR-5 ovarian; 3.2 µM in the experiment with UACC-257 melanoma. For the same compound, the figures for the TGI in the experiment on U251 CNS, in the experiment on MALME-3M melanoma and with UACC-62 melanoma were 2.81 µM, 2.3 µM and 2.95 µM, respectively.
`O=C(Nc1nc2ccccc2s1)c1cc(-c2ccc(F)cc2)n2nc(-c3ccccc3)cc2n1`: the GI50 in the experiment on DU-145 prostate is 4950 nM; in the experiment on CCRF-CEM leukemia, 1870 nM; in the experiment on HOP-62 NSCLC, 2240 nM; in the experiment on IGROV1 ovarian, 4.36 µM; in the experiment with MALME-3M melanoma it was 3740 nM; in the experiment on UACC-62 melanoma it was 3790 nM. The TGI in the experiment with DU-145 prostate is greater than 100 µM; with CCRF-CEM leukemia, 4.52 µM; with HOP-62 NSCLC, 7.02 µM; with IGROV1 ovarian, greater than 100 µM; in the experiment with MALME-3M melanoma it was greater than 100 µM; in the experiment on UACC-62 melanoma, greater than 100 µM.
Turning to `COc1cc2c(cc1OCCCOc1ccc(-c3nc4ccc(N5CCN(C)CC5)cc4[nH]3)cc1)N=C[C@@H]1CCCN1C2=O`, the GI50 in the experiment on DU-145 prostate, in the experiment on CCRF-CEM leukemia, in the experiment on HT29 colon, in the experiment with HOP-62 NSCLC, in the experiment with OVCAR-5 ovarian and with U251 CNS was less than 10 nM in each case. Also, the GI50 in the experiment on MALME-3M melanoma is less than 10 nM; in the experiment with UACC-62 melanoma it was less than 13.3 nM. Besides, the TGI with DU-145 prostate was 6.98 µM; in the experiment on CCRF-CEM leukemia it was 2.33 µM; with HT29 colon, greater than 100 µM; with HOP-62 NSCLC, less than 0.01 µM; with U251 CNS, 5.07 µM; with MALME-3M melanoma it was less than 0.01 µM. Besides, in the experiment on UACC-62 melanoma, the TGI was less than 0.0201 µM.
For `CN=C(N)N/N=C(\C)c1ccc2c(c1)Cc1ccccc1-2`, the GI50 in the experiment with DU-145 prostate is 1120 nM; in the experiment on CCRF-CEM leukemia, 1730 nM; in the experiment on HT29 colon, 1610 nM; in the experiment with HOP-62 NSCLC, 1660 nM; in the experiment with OVCAR-5 ovarian it was 1650 nM; in the experiment with IGROV1 ovarian, 3.74 µM. The GI50 with UACC-257 melanoma was 1960 nM; with MALME-3M melanoma it was 1510 nM; with UACC-62 melanoma it was 1500 nM. The TGI in the experiment on DU-145 prostate amounted to 3.17 µM; in the experiment on CCRF-CEM leukemia it was 7.14 µM; in the experiment on HT29 colon it was 3.39 µM; with HOP-62 NSCLC, 3.2 µM; with OVCAR-5 ovarian, 3.96 µM; with IGROV1 ovarian, 19.5 µM. Besides, the TGI in the experiment with UACC-257 melanoma amounted to 3.74 µM; in the experiment on MALME-3M melanoma, 3.02 µM; in the experiment with UACC-62 melanoma, 2.86 µM.
